From ChEMBL document CHEMBL3885881, “DrugMatrix”

Species on record: Rattus norvegicus
Experiment: DrugMatrix - Regimen: Daily Repeat
Format: toxicity, organism-based, Sprague-Dawley
Parameters: regimen Daily Repeat, gender Male, age 6-8 weeks
Details: in vivo, po, route oral GAVAGE, vehicle 100 % WATER; for ABSOLUTE BASOPHIL / ABSOLUTE EOSINOPHIL / ABSOLUTE LYMPHOCYTE / ABSOLUTE MONOCYTE / ABSOLUTE SEGMENTED NEUTROPHIL / BASOPHIL / EOSINOPHIL / ERYTHROCYTE COUNT / HEMATOCRIT / HEMOGLOBIN / LEUKOCYTE COUNT / LYMPHOCYTE / MEAN CORPUSCULAR HEMOGLOBIN / MEAN CORPUSCULAR HEMOGLOBIN CONCENTRATION / MEAN CORPUSCULAR VOLUME / MONOCYTE / NEUTROPHIL / NUCLEATED RED BLOOD CELLS / PLATELET COUNT: tissue Blood; for ALANINE AMINOTRANSFERASE / ALBUMIN / ALKALINE PHOSPHATASE / ASPARTATE AMINOTRANSFERASE / BLOOD UREA NITROGEN / CARBON DIOXIDE / CHLORIDE / CHOLESTEROL / CREATINE PHOSPHOKINASE / CREATININE / GLUCOSE / LIPASE / PHOSPHORUS / POTASSIUM / SODIUM / TOTAL BILIRUBIN / TOTAL PROTEIN / URIC ACID: tissue Plasma
[1] = 175 mg/kg, 120 h, dose level High, time 5 day
[2] = […], 72 h, dose 5.7 mg/Kg, dose level Low, time 3 day
[3] = […], 120 h, dose 5.7 mg/Kg, dose level Low, time 5 day

## CC(C)NCC(O)COc1cccc2ccccc12 (stereo unspecified) [PROPRANOLOL]
[1]
  ABSOLUTE BASOPHIL: 0 CELLS/uL
  ABSOLUTE EOSINOPHIL: 0 CELLS/uL
  ABSOLUTE LYMPHOCYTE: 13526.33 CELLS/uL
  ABSOLUTE MONOCYTE: 232.67 CELLS/uL
  ABSOLUTE SEGMENTED NEUTROPHIL: 741 CELLS/uL
  BASOPHIL: 0%
  EOSINOPHIL: 0%
  ERYTHROCYTE COUNT: 5.28 x10E6/uL
  HEMATOCRIT: 34.3%
  HEMOGLOBIN: 13.2 G/DL
  LEUKOCYTE COUNT: 14.5 x10E3/uL
  LYMPHOCYTE: 93.33%
  MEAN CORPUSCULAR HEMOGLOBIN: 25 pg
  MEAN CORPUSCULAR HEMOGLOBIN CONCENTRATION: 38.5 G/DL
  MEAN CORPUSCULAR VOLUME: 65 fL
  MONOCYTE: 1.67%
  NEUTROPHIL: 5%
  NUCLEATED RED BLOOD CELLS: 0 /100WBC
  PLATELET COUNT: 1299 x10E3/uL
  ALANINE AMINOTRANSFERASE: 57.33 u/L
  ALBUMIN: 3.97 G/DL
  ALKALINE PHOSPHATASE: 397.33 u/L
  ASPARTATE AMINOTRANSFERASE: 73.67 u/L
  BLOOD UREA NITROGEN: 17 mg/dL
  CARBON DIOXIDE: 29 mmol/L
  CHLORIDE: 101 MEQ/L
  CHOLESTEROL: 78.67 mg/dL
  CREATINE PHOSPHOKINASE: 314.67 u/L
  CREATININE: 0.18 mg/dL
  GLUCOSE: 149 mg/dL
  LIPASE: 10 u/L
  PHOSPHORUS: 13.43 mg/dL
  POTASSIUM: 6.7 MEQ/L
  SODIUM: 144.77 MEQ/L
  TOTAL BILIRUBIN: 0.2 mg/dL
  TOTAL PROTEIN: 5.6 G/DL
  URIC ACID: 1.33 mg/dL
[2]
  ABSOLUTE BASOPHIL: 0 CELLS/uL
  ABSOLUTE EOSINOPHIL: 0 CELLS/uL
  ABSOLUTE LYMPHOCYTE: 11391.33 CELLS/uL
  ABSOLUTE MONOCYTE: 180.33 CELLS/uL
  ABSOLUTE SEGMENTED NEUTROPHIL: 2228.33 CELLS/uL
  BASOPHIL: 0%
  EOSINOPHIL: 0%
  ERYTHROCYTE COUNT: 5.65 x10E6/uL
  HEMATOCRIT: 35.6%
  HEMOGLOBIN: 13.2 G/DL
  LEUKOCYTE COUNT: 13.8 x10E3/uL
  LYMPHOCYTE: 82.33%
  MEAN CORPUSCULAR HEMOGLOBIN: 23.37 pg
  MEAN CORPUSCULAR HEMOGLOBIN CONCENTRATION: 37.07 G/DL
  MEAN CORPUSCULAR VOLUME: 62.97 fL
  MONOCYTE: 1.33%
  NEUTROPHIL: 16.33%
  NUCLEATED RED BLOOD CELLS: 0.33 /100WBC
  PLATELET COUNT: 1291 x10E3/uL
  ALANINE AMINOTRANSFERASE: 52.67 u/L
  ALBUMIN: 4.07 G/DL
  ALKALINE PHOSPHATASE: 368.67 u/L
  ASPARTATE AMINOTRANSFERASE: 80 u/L
  BLOOD UREA NITROGEN: 14 mg/dL
  CARBON DIOXIDE: 27.67 mmol/L
  CHLORIDE: 102.67 MEQ/L
  CHOLESTEROL: 83 mg/dL
  CREATINE PHOSPHOKINASE: 155.33 u/L
  CREATININE: 0.26 mg/dL
  GLUCOSE: 153.33 mg/dL
  LIPASE: 11.33 u/L
  PHOSPHORUS: 13.73 mg/dL
  POTASSIUM: 6.83 MEQ/L
  SODIUM: 146 MEQ/L
  TOTAL BILIRUBIN: 0.2 mg/dL
  TOTAL PROTEIN: 5.83 G/DL
  URIC ACID: 1.7 mg/dL
[3]
  ABSOLUTE BASOPHIL: 0 CELLS/uL
  ABSOLUTE EOSINOPHIL: 0 CELLS/uL
  ABSOLUTE LYMPHOCYTE: 12645 CELLS/uL
  ABSOLUTE MONOCYTE: 541.67 CELLS/uL
  ABSOLUTE SEGMENTED NEUTROPHIL: 1413.33 CELLS/uL
  BASOPHIL: 0%
  EOSINOPHIL: 0%
  ERYTHROCYTE COUNT: 5.27 x10E6/uL
  HEMATOCRIT: 34.07%
  HEMOGLOBIN: 12.83 G/DL
  LEUKOCYTE COUNT: 14.6 x10E3/uL
  LYMPHOCYTE: 87%
  MEAN CORPUSCULAR HEMOGLOBIN: 24.37 pg
  MEAN CORPUSCULAR HEMOGLOBIN CONCENTRATION: 37.77 G/DL
  MEAN CORPUSCULAR VOLUME: 64.5 fL
  MONOCYTE: 3.67%
  NEUTROPHIL: 9.33%
  NUCLEATED RED BLOOD CELLS: 0.33 /100WBC
  PLATELET COUNT: 1063 x10E3/uL
  ALANINE AMINOTRANSFERASE: 45.33 u/L
  ALBUMIN: 4.27 G/DL
  ALKALINE PHOSPHATASE: 387.67 u/L
  ASPARTATE AMINOTRANSFERASE: 114 u/L
  BLOOD UREA NITROGEN: 22.33 mg/dL
  CARBON DIOXIDE: 21.67 mmol/L
  CHLORIDE: 99.67 MEQ/L
  CHOLESTEROL: 67.33 mg/dL
  CREATINE PHOSPHOKINASE: 1341.67 u/L
  CREATININE: 0.51 mg/dL
  GLUCOSE: 217 mg/dL
  LIPASE: 11.67 u/L
  PHOSPHORUS: 14.5 mg/dL
  POTASSIUM: 7.21 MEQ/L
  SODIUM: 143.73 MEQ/L
  TOTAL BILIRUBIN: 0.17 mg/dL
  TOTAL PROTEIN: 6.07 G/DL
  URIC ACID: 2.67 mg/dL
